# Measured values: patent US20240009651A1, “PRE-COATINGS FOR BIOCOMPATIBLE SOLID PHASE MICROEXTRACTION DEVICES” (SIGMA-ALDRICH CO. LLC, priority 2020, published 2024)
# Experiments:
# [1] = cited from earlier work; for Physiological Charge: physiological pH
# in vitro = conditions: human
# Procedure: (§1) Protein Binding by BioSPME was studied. A 96-pin device was prepared with an […] pre-coating and PAN/C18 BioSPME coating. Human plasma and buffer were spiked at a therapeutically relevant concentration and incubated for one hour at 37° C. while shaking at 300 rpm. After the incubation, 200 μL plasma and buffer were loaded into separate columns on to the extraction well plate (n=8). The determination of the protein binding was determined by automated robotic method using the BioSPME C18 96-pin tool. Briefly, the pin tool is conditioned for twenty minutes static in isopropanol, then it is transferred into a new well plate for 10 seconds in water (wash step). This is followed by the extraction step. The pin tool is transferred into the preloaded extraction plate described earlier. Here, the pin tool extracts the analytes while shaking at 1200-1250 rpm at 37° C. for 15 minutes. The pin tools return to the water solution for a 60 seconds wash and finally transferred into a desorption plate. The desorption solution is a 80:20 methanol:water and desorbs for 20 minutes under static conditions. Samples were analyzed using methods described in Tables 5 and 6.
# (§2) The extraction plates used in this study included both plastic and glass-coated plates. The choice of the plate depended on the compound properties and how well the compound behaved in buffer solution.
# (§3) Determination of % Free Fraction (Fu) by BioSPME
# (§4) BioSPME method determines the free concentration of analyte in plasma by comparing it with the extraction of the analyte from buffer samples where 100% of the analyte is considered to be free of protein biding.
# (§5) The percent free or percent unbound is determined in Eq. 1:
# (§6) where concentration free represents the unbound concentration of the analyte in the matrix in this case plasma, and concentration total represents the total concentration of analyte. The amount extracted is independent of units and can be applied using preferred quantities (e.g. nanograms or moles) Mfree, and extraction volume of plasma, Vplasma. The concentration of analyte in the desorption solution is quantified by an external calibration curve, and if the desorption volume is equal to the plasma and buffer extraction volumes, the concentration from desorption will be equal to the extracted concentration as shown in Eq 2.
# (§7) The bound fraction, FB, can be determined from the extracted concentrations as shown in Eq 6.
# (§8) In cases where depletion of compounds from plasma was pronounced upon BioSPME extraction (extraction exceeded 5% of total spiked analyte), a correction to the calculated Bound Fraction was required as described below:
# (§9) where B and P, represent the respective amounts extracted from buffer, B, and plasma, P. B^0 represents the concentration the samples were spiked originally.
# Human plasma = assay: in vitro
# Procedure: as §1, §2, §3, §4, §5, §6, §7, §8, §9
# [2] = Non-specific binding to plastic extraction plates; format: in vitro ADME; conditions: plastic versus glass-coated 96-well extraction plates, buffer solution
# Description: as §2
# [3] = human plasma, spiked 100 ng/mL, 200 μL sample, 37° C., n = 8
smiles,measurement,setting,value
O=C1CC2(CCCC2)CC(=O)N1CCCCN1CCN(c2ncccn2)CC1 [Buspirone],pKa,[1],4.12
NC(=O)N1c2ccccc2C=Cc2ccccc21 [Carbamazepine],"fraction unbound at 1 h, 100 ng/mL",in vitro; plasma,0.236
same,Ave. Buffer Extracted,"Human plasma; 15 min, 100 ng/mL",34.7 ng/mL
same,Ave. Plasma Extracted,"Human plasma; human, 15 min, 100 ng/mL",8.2 ng/mL
same,Ave. FB(%) (bound fraction),"Human plasma; human, 1 h, 100 ng/mL",76.4%
same,Physiological Charge,[1],0
CC[C@H]1OC(=O)[C@H](C)[C@@H](O[C@H]2C[C@@](C)(OC)[C@@H](O)[C@H](C)O2)[C@H](C)[C@@H](O[C@@H]2O[C@H](C)C[C@H](N(C)C)[C@H]2O)[C@](C)(O)C[C@@H](C)C(=O)[C@H](C)[C@@H](O)[C@]1(C)O [Erythromycin],"fraction unbound at 1 h, 100 ng/mL",in vitro; plasma,0.182
same,Ave. Buffer Extracted,"Human plasma; 15 min, 100 ng/mL",35.0 ng/mL
same,Ave. Plasma Extracted,"Human plasma; human, 15 min, 100 ng/mL",6.5 ng/mL
same,Ave. FB(%) (bound fraction),"Human plasma; human, 1 h, 100 ng/mL",81.8%
CN(C)CCCN1c2ccccc2CCc2ccccc21 [Imipramine],"fraction unbound at 1 h, 100 ng/mL",in vitro; human plasma,0.074
same,Ave. Buffer Extracted,"Human plasma; 15 min, 100 ng/mL",65.4 ng/mL
same,Ave. FB(%) (bound fraction),Human plasma; [3],92.6%
same,Ave. Plasma Extracted,"Human plasma; human, 15 min, 100 ng/mL",12.2 ng/mL
same,Physiological Charge,[1],1
same,non-specific binding to plastic,[2],exhibit non-specific biding to plastic
CC(=O)N1CCN(c2ccc(OCC3COC(Cn4ccnc4)(c4ccc(Cl)cc4Cl)O3)cc2)CC1 (centres unmarked) [Ketoconazole],"fraction unbound at 1 h, 500 ng/mL",in vitro; human plasma,0.032
same,Ave. Buffer Extracted,"Human plasma; 15 min, 500 ng/mL",282.4 ng/mL
same,Ave. FB(%) (bound fraction),"Human plasma; human plasma, spiked 500 ng/mL, 200 μL sample, 37° C., n = 8",96.8%
same,Ave. Plasma Extracted,"Human plasma; human, 15 min, 500 ng/mL",20.0 ng/mL
same,pKa,[1],6.75
same,Physiological Charge,[1],0
same,non-specific binding to plastic,[2],exhibit non-specific biding to plastic
CCn1cc(C(=O)O)c(=O)c2ccc(C)nc21 [Nalidixic Acid],"fraction unbound at 1 h, 2000 ng/mL",in vitro; plasma,0.03
same,Ave. Buffer Extracted,"Human plasma; 15 min, 2000 ng/mL",16.35 ng/mL
same,Ave. Plasma Extracted,"Human plasma; human, 15 min, 2000 ng/mL",0.5 ng/mL
same,Ave. FB(%) (bound fraction),"Human plasma; human, 1 h, 2000 ng/mL",97.0%
same,Log P,[1],1.59
CC(C)NCC(O)COc1cccc2ccccc12 (centres unmarked) [Propranolol],"fraction unbound at 1 h, 100 ng/mL",in vitro; plasma,0.095
same,Ave. Buffer Extracted,"Human plasma; 15 min, 100 ng/mL",18.3 ng/mL
same,Ave. Plasma Extracted,"Human plasma; human, 15 min, 100 ng/mL",1.7 ng/mL
same,Ave. FB(%) (bound fraction),"Human plasma; human, 1 h, 100 ng/mL",90.5%
same,Physiological Charge,[1],1
CC(=O)CC(c1ccccc1)c1c(O)c2ccccc2oc1=O (centres unmarked) [Warfarin],"fraction unbound at 1 h, 2500 ng/mL",in vitro; plasma,0.002
same,Ave. Buffer Extracted,"Human plasma; 15 min, 2500 ng/mL",10.0 ng/mL
same,Ave. Plasma Extracted,"Human plasma; human, 15 min, 2500 ng/mL",<0.1 ng/mL
same,Ave. FB(%) (bound fraction),"Human plasma; human, 1 h, 2500 ng/mL",99.8%
Cc1ccc(-c2nc3ccc(C)cn3c2CC(=O)N(C)C)cc1 [Zolpidem],"fraction unbound at 1 h, 100 ng/mL",in vitro; plasma,0.031
same,Ave. Buffer Extracted,"Human plasma; buffer, spiked 100 ng/mL, 200 μL sample, n = 8",68.4 ng/mL
same,Ave. FB(%) (bound fraction),Human plasma; [3],96.9%
same,Ave. Plasma Extracted,"Human plasma; human plasma, spiked 100 ng/mL, 200 μL sample, n = 8",2.1 ng/mL
same,Physiological Charge,[1],0
C[C@]12C=CC(=O)C=C1CC[C@@H]1[C@@H]2[C@@H](O)C[C@@]2(C)[C@H]1CC[C@]2(O)C(=O)CO [prednisolone],"fraction unbound at 1 h, 100 ng/mL",in vitro; plasma,0.218
same,Ave. Buffer Extracted,"Human plasma; 15 min, 100 ng/mL",62.1 ng/mL
same,Ave. Plasma Extracted,"Human plasma; human, 15 min, 100 ng/mL",13.5 ng/mL
same,Ave. FB(%) (bound fraction),"Human plasma; human, 1 h, 100 ng/mL",78.2%
same,Physiological Charge,[1],0
